Experimental data published in US20260001834A1, “COMPOUND OR SALT THEREOF, LIPID COMPOSITION, PHARMACEUTICAL COMPOSITION, AND DELIVERY CARRIER” (FUJIFILM Corporation, priority 2023, published 2026).

How the values were obtained:
[1] = Particle diameter and polydispersity index (PdI) of mRNA-encapsulating lipid nanoparticles; format: physicochemical; details: EPO mRNA-encapsulating lipid nanoparticles, compound:DSPC:cholesterol:DMG-PEG2000=50:10:38.5:1.5; diluted with PBS
Procedure: (§1) The compounds shown in Table 9, 1,2-distearoyl-sn-glycero-3-phosphocholine (product name: COATSOME® MC-8080; NOF corporation) (hereinafter, DSPC), cholesterol (product name: Cholesterol HP; Nippon Seika Co., Ltd.), and 1,2-dimyristoyl-rac-glycero-3-(methylpolyoxyethylene 2000) (hereinafter, DMG-PEG2000) (product name: SUNBRIGHT® GM-020; NOF corporation) were dissolved in ethanol at a molar ratio (mol %) of compounds shown in Table 9:1,2-distearoyl-sn-glycero-3-phosphocholine:cholesterol:DMG-PEG2000=50:10:38.5:1.5 such that the total lipid concentration was 12.5 mmol/L, thereby obtaining an oil phase.
(§2) EPO mRNA (product name: CleanCap EPO mRNA (5moU); TriLink) was diluted with 50 mmol/L citrate buffer having a pH 4.0 such that the weight ratio of total lipid concentration to mRNA concentration is about 20:1, thereby obtaining a water phase. Then, the water phase and the oil phase were mixed together using NanoAssemblr (Precision NanoSystems) such that the volume ratio of water phase:oil phase was 3:1, and the mixed solution was 2-fold diluted with phosphate buffered physiological saline (PBS) or water, thereby obtaining a dispersion liquid of mRNA lipid nanoparticles. The dispersion liquid was dialyzed with 20 mM Tris buffer solution containing 8% sucrose using a dialysis cassette (Slide-A-Lyzer G2, MWCO: 10 kD, Thermo Fisher Scientific) to remove ethanol, thereby obtaining EPO mRNA-encapsulating lipid nanoparticles.
The particle diameter and the polydispersity index (PdI) of the mRNA-encapsulating lipid nanoparticles were obtained by measuring a dispersion liquid of lipid nanoparticles diluted with phosphate buffered physiological saline (PBS) using a particle size analyzer NanoSAQLA (Otsuka Electronics Co., Ltd.).

[2] = Encapsulation rate of mRNA in lipid nanoparticles; format: physicochemical; details: EPO mRNA-encapsulating lipid nanoparticles, compound:DSPC:cholesterol:DMG-PEG2000=50:10:38.5:1.5
Procedure: as §1, §2
<Evaluation of Encapsulation Rate of mRNA> (Quantification of Total mRNA Concentration)
EPO mRNA was diluted with MilliQ water to prepare a diluted sample in 2-fold dilution series from 100 μg/mL to 3.1 μg/mL, and a standard solution for calibration was prepared. 50 μL of the standard solution for calibration or the mRNA lipid nanoparticles was mixed with 450 μL of methanol to prepare a measurement solution.
The absorbance of each measurement solution at 260 nm and 330 nm was measured using a UV plate reader (Multiskan Go, Thermo Fisher Scientific), the absorbance at 330 nm was subtracted from the absorbance at 260 nm, and the result was used as the absorbance of each measurement solution. The total water phase nucleic acid concentration was calculated from the calibration curve using the absorbance of each sample measurement solution.
(Quantification of mRNA Concentration in Outer Water Phase)
The concentration of the outer water phase nucleic acid was quantified by a standard addition method using a QuanT-iT RiboGreen RNA Assay Kit (Thermo Fisher Scientific). First, a 20×TE buffer included in the above kit was diluted with water, thereby obtaining a 1×TE buffer. TE represents Tris/EDTA (ethylenediaminetetraacetic acid). EPO mRNA was diluted with a TE buffer such that the final concentration was 0 to 400 ng/mL to prepare a nucleic acid diluted series. 10 μL of mRNA lipid nanoparticles diluted 5-fold with TE buffer and 90 μL of a nucleic acid dilution series were mixed in a 96-well plate, 100 μL of a Ribogreen reagent diluted 200-fold with TE buffer was added to each well, and then fluorescence (excitation wavelength: 485 nm, fluorescence wavelength: 535 nm) was measured using a fluorescence plate reader (Infinite 200 Pro M nano+, TECAN). From the obtained results, the outer water phase nucleic acid concentration of each measurement solution was calculated according to the standard addition method.
(Calculation of Encapsulation Rate)
By using the quantification results of the total mRNA concentration and the mRNA concentration in the outer water phase that were obtained through the above steps, the mRNA encapsulation rate of the mRNA lipid nanoparticles was calculated according to the following Equation.

[3] = system: ICR mice; assay: EPO expression level in mice after intravenous EPO mRNA lipid nanoparticles (human EPO ELISA of plasma); format: in vivo; details: mRNA dosage 0.1 mg/kg, plasma 6 hours after administration, Comparative Example set to 1
Procedure: as §1, §2
The dispersion liquid of mRNA lipid nanoparticles prepared in above <Preparation of EPO mRNA-encapsulating lipid nanoparticles> was intravenously administered to ICR mice at a mRNA dosage of 0.1 mg/kg. 6 hours after the administration, blood was collected from the caudal vena cava, thereby obtaining plasma. The human EPO […] was quantified by using the obtained blood plasma and Erythropoietin (EPO) Human Elisa Kit (Abcam.plc). The quantitative value is described as a relative amount of EPO protein in a case where Comparative Example is set to 1.

| Molecule | Particle diameter (nm) [1] [nm] | PdI [1] | Nucleic acid encapsulation rate [2] [%] | Relative amount of EPO protein (with respect to Comparative Example 1) [3] |
| --- | --- | --- | --- | --- |
| CCCCCCCCOC(=O)CCCCCCCCC(CCCCCC)OC(=O)OCCN(CCOC(=O)C(CCCC)CCCCCC)CCN(CC)CC (stereo not drawn) [Compound 1, octyl 6-(2-((2-butyloctanoyl)oxy)ethyl)-3-ethyl-12-hexyl-10-oxo-9,11-dioxa-3,6-diazahenicosan-21-oate] | 112 | 0.03 | 89 |  |
| CCCCCCOC(=O)CCCCCCCCC(CCCCCC)OC(=O)OCCN(CCOC(=O)C(CCCCCC)CCCCCC)CCN(CC)CC (stereo not drawn) [Compound 2, hexyl 3-ethyl-12-hexyl-6-(2-((2-hexyloctanoyl)oxy)ethyl)-10-oxo-9,11-dioxa-3,6-diazahenicosan-21-oate] | 103 | 0.03 | 90 | 1.61 |
| CCCCCCCCC(CCCCCCCC)C(=O)OCCN(CCOC(=O)OC(CCCCCC)CCCC(=O)OCCCCCCC)CCN(CC)CC (stereo not drawn) [Compound 4, heptyl 3-ethyl-12-hexyl-6-(2-((2-octyldecanoyl)oxy)ethyl)-10-oxo-9,11-dioxa-3,6-diazahexadecan-1 6-oate] | 85 | 0.12 | 90 | 3.09 |
| CCCCCCCOC(=O)CCCC(CCCCCC)OC(=O)OCCN(CCOC(=O)CC(CCCCCCC)CCCCCCC)CCN(CC)CC (stereo not drawn) [Compound 6, heptyl 3-ethyl-6-(2-((3-heptyldecanoyl)oxy)ethyl)-12-hexyl-10-oxo-9,11-dioxa-3,6-diazahexadecan-16-oate] | 98 | 0.11 | 77 | 4.91 |
| CCCCCCCCOC(=O)CCCC(CCCCCC)OC(=O)OCCN(CCOC(=O)C(CCCCCCC)CCCCCCC)CCN(CC)CC (stereo not drawn) [Compound 7, octyl 3-ethyl-6-(2-((2-heptylnonanoyl)oxy)ethyl)-12-hexyl-10-oxo-9,11-dioxa-3,6-diazahexadecan-16-oate] | 82 | 0.12 | 79 | 3.82 |
| CCCCCCCCOC(=O)CCCC(CCCCCC)OC(=O)OCCN(CCOC(=O)CC(CCCCCCC)CCCCCCC)CCN(CC)CC (stereo not drawn) [Compound 8, octyl 3-ethyl-6-(2-((3-heptyldecanoyl)oxy)ethyl)-12-hexyl-10-oxo-9,11-dioxa-3,6-diazahexadecan-16-oate] | 89 | 0.12 | 78 | 3.79 |
| CCCCCCCC(CCCCCCC)CC(=O)OCCN(CCOC(=O)OC(CCCCCC)CCCC(=O)OCC(CCCCC)CCCCC)CCN(CC)CC (stereo not drawn) [Compound 9, 2-pentylheptyl 3-ethyl-6-(2-((3-heptyldecanoyl)oxy)ethyl)-12-hexyl-10-oxo-9,11-dioxa-3,6-diazahexadecan-16-oate] | 77 | 0.13 | 85 | 2.30 |
| heptyl 3-ethyl-12-hexyl-6-(2-((2-hexyloctanoyl)oxy)ethyl)-10-oxo-9,11-dioxa-3,6-diazahexadecan-1 6-oate [Compound 5] | 118 | 0.07 | 79 | 2.28 |

Now from value to molecule, other results behind:

| Particle diameter (nm) [1] [nm] | PdI [1] | Nucleic acid encapsulation rate [2] [%] | Molecule | Relative amount of EPO protein (with respect to Comparative Example 1) [3] |
| --- | --- | --- | --- | --- |
| 75 | 0.10 | 86 | CCCCCCCC(CCCCCCC)CC(=O)OCCN(CCOC(=O)OC(CCCCCC)CCCC(=O)OCC(CCCCCC)CCCCCC)CCN(CC)CC (stereo not drawn) [Compound 10, 2-hexyloctyl 3-ethyl-6-(2-((3-heptyldecanoyl)oxy)ethyl)-12-hexyl-10-oxo-9,11-dioxa-3,6-diazahexadecan-16-oate] | 1.72 |
| 79 | 0.15 | 95 | CCCCCCCCCC(CCCCCCCCC)C(=O)OCCN(CCOC(=O)OC(CCCCCC)CCCC(=O)OCCCCCCC)CCN(CC)CC (stereo not drawn) [Compound 17, heptyl 3-ethyl-12-hexyl-6-(2-((2-nonylundecanoyl)oxy)ethyl)-10-oxo-9,11-dioxa-3,6-diazahexadecan-16-oate] | 1.91 |
| 79 | 0.13 | 95 | CCCCCCCCCCC(CCCCCCCCCC)C(=O)OCCN(CCOC(=O)OC(CCCCCC)CCCC(=O)OCCCCCCC)CCN(CC)CC (stereo not drawn) [Compound 18, heptyl 6-(2-((2-decyldodecanoyl)oxy)ethyl)-3-ethyl-12-hexyl-10-oxo-9,11-dioxa-3,6-diazahexadecan-16-oate] | 1.30 |
| 91 | 0.09 | 94 | CCCCCCCCC(CCCCCC)C(=O)OCCN(CCOC(=O)OC(CCCCCC)CCCC(=O)OCCCCCCC)CCN(CC)CC (stereo not drawn) [Compound 19, heptyl 3-ethyl-12-hexyl-6-(2-((2-hexyldecanoyl)oxy)ethyl)-10-oxo-9,11-dioxa-3,6-diazahexadecan-1 6-oate] | 4.31 |
| 137 | 0.10 | 87 | CCCCCCCOC(=O)CCCC(CCCCCC)OC(=O)OCCN(CCCN(CC)CC)CCOC(=O)C(CCCCCC)CCCCCC (stereo not drawn) [Compound 20, heptyl 3-ethyl-13-hexyl-7-(2-((2-hexyloctanoyl)oxy)ethyl)-11-oxo-10,12-dioxa-3,7-diazaheptadecan-17-oate] | 1.68 |
| 129 | 0.12 | 89 | CCCCCCCOC(=O)CCCCC(CCCCCC)OC(=O)OCCN(CCCN(CC)CC)CCOC(=O)C(CCCCCC)CCCCCC (stereo not drawn) [Compound 21, heptyl 3-ethyl-13-hexyl-7-(2-((2-hexyloctanoyl)oxy)ethyl)-11-oxo-10,12-dioxa-3,7-diazaoctadecan-1 8-oate] | 1.65 |
| 95 | 0.10 | 94 | CCCCCCCOC(=O)CCCCC(CCCCCC)OC(=O)OCCN(CCCN(CC)CC)CCOC(=O)C(CCCCCCC)CCCCCCC (stereo not drawn) [Compound 22, heptyl 3-ethyl-7-(2-((2-heptylnonanoyl)oxy)ethyl)-13-hexyl-11-oxo-10,12-dioxa-3,7-diazaoctadecan-18-oate] | 6.09 |
| 102 | 0.16 | 94 | CCCCCCCOC(=O)CCCCC(CCCCCC)OC(=O)OCCN(CCCN(CC)CC)CCOC(=O)CC(CCCCCCC)CCCCCCC (stereo not drawn) [Compound 25, heptyl 3-ethyl-7-(2-((3-heptyldecanoyl)oxy)ethyl)-13-hexyl-11-oxo-10,12-dioxa-3,7-diazaoctadecan-18-oate] | 4.77 |
